According to US11352382B2, “Mito-lonidamine, compositions and methods of use” (THE MEDICAL COLLEGE OF WISCONSIN, INC., priority 2018, dated 2022):

Assays:
[1] = tested on: H2030BrM3 orthotopic lung adenocarcinoma in nude mice; assay: Orthotopic lung tumor mouse model; assay type: in vivo; conditions: 7.5 μmol/kg oral gavage 5 times/wk for 3 wks, nude mice
Method: Inhibitory effects of Mito-LON in an orthotopic lung tumor mouse model. We conducted a pilot study using an orthotopic model of lung adenocarcinoma (H2030BrM3 cells) in nude mice. Cells (1×10^6 cells/50 μg of growth factor-reduced Matrigel in 50 μL of RPMI-1640) were injected into the lung. One week after injection, mice were treated with the same dose of LON or Mito-LON (7.5 μmol/kg), or vehicle (corn oil), by oral gavage 5 times/wk for 3 wks.

[2] = at clinically relevant concentrations (<130 μM); cited from earlier work
Pancreatic cancer cells = assay: Anti-proliferative effects in pancreatic cancer cells (number of cells over time); assay type: cell-based, human; conditions: Pancreatic cancer cell; in vitro; b60 words: cancer cells (human pancreatic cancer, lung cancer and brain metastasis); read-out: IC50, inhibiting the proliferation of cancer cells
Method: Pancreatic cancer cells were treated with either LND or Mito-LND at varying concentrations and the number of cells was assayed over time.

H2030BrM3 cells [3] = assay: Cell proliferation, IncuCyte Live-Cell Imaging Analyzer (cell confluence); assay type: cell-based; conditions: Homo sapiens, H2030-BrM3; H2030BrM3 cells, IncuCyte, FIG. 14; read-out: IC50, cell proliferation
Method: (§1) In contrast, Mito-LON (1.2-2.7 μM) targets mitochondrial complexes I and II (FIG. 9); its mitochondrial effects are supported by the compartment-selective oxidation of mitochondrial Prx3 (FIG. 13). The anti-proliferative effects of Mito-LON and LON were compared in H2030BrM3 cells.

[4] = patients; cited from earlier work
[5] = tested on: PC9BrM3 and H2030BrM3 brain metastasis lung cancer cell lines; assay: Boyden chamber (transwell) invasion assay; assay type: cell-based; conditions: Homo sapiens, H2030-BrM3; LON 100 μM alone; read-out: inhibitory effect on invasion when used alone
Text: Mito-LON inhibits migration and invasion of brain metastatic human lung cancer cells. To investigate the potential of Mito-LON and LON for lung cancer metastasis, we first tested its effects in vitro via the Boyden chamber invasion assay using PC9BrM3 and H2030BrM3 brain metastasis lung cancer cell lines.

H2030BrM3 cells [6] = assay: Cellular ROS production, HPLC-based analysis of hydroethidine (HE) oxidation; assay type: cell-based, human; conditions: 200 μM, H2030BrM3 cells
Text: Inhibition of mitochondrial respiration results in increased O2^⋅− and other oxidants.

HK2 = HK2 protein levels and mRNA expression in lung cancer lines; assay type: cell-based, human
Method: as §1
Role of HK2 and additional possible signaling events that contribute to the effects of Mito-LON. […] This could contribute to their effects as many cancers have constitutive ERK activation which promotes survival and proliferation, and ERK1 can play an important role in regulating mitochondrial activity, apoptosis, proliferation and migration. […] AKT is another pro-survival factor that is constitutively activated (phosphorylated) in many cancers.

[7] = tested on: mitochondrial complexes I and II; assay: Inhibition of mitochondrial complexes I and II, stated jointly; assay type: cell-based, human
Text: LON and Mito-LON inhibit mitochondrial complex I activity. Mito-LON inhibited cellular respiration (oxygen consumption rate, OCR) at >100-fold lower concentration than LON in intact lung cancer cells (FIG. 9). Both basal respiration and the response to mitochondrial stressors (oligomycin, dinitrophenol) were diminished by Mito-LON (not shown). To investigate the mechanism of mitochondrial inhibition, we measured the activity of mitochondrial complexes in H2030BrM3 cells (NSCLC cell line). The cell membrane was permeabilized, and OCR was measured upon addition of substrates and inhibitors of mitochondrial complexes I-IV (FIG. 9A). These studies established the optimal use of permeabilized cells for complex activity assays.^54 Next, cells were pretreated with LON and Mito-LON for 24 h and experiments performed as in FIG. 9A. […] We hypothesize that inhibition of mitochondrial complexes I and II is the predominant mechanism for antiproliferative effects of Mito-LON on lung cancer cells.

Question: With `O=C(O)c1nn(Cc2ccc(Cl)cc2Cl)c2ccccc12` [LON, 1-(2,4-dichlorobenzyl)-1H-indazole-3-carboxylic acid, reference compound] as the molecule, how does the “efficacy in orthotopic lung tumor model” value [1] read?
Answer: not effective

Question: What about the “effectiveness by itself in vitro” value [2] of the same molecule?
Answer: only moderately effective

Question: What about the IC50 (Pancreatic cancer cells) of the same molecule?
Answer: 327 µM

Question: And the IC50 (H2030BrM3 cells [3])?
Answer: 140 µM

Question: What about the “typical peak plasma levels” value [4] of the same molecule?
Answer: 17 to 127 µM

Question: And the inhibition at 100 µM [5]?
Answer: < 10%

Question: And the “intracellular levels of 2-OH-E+ (superoxide-specific product of HE oxidation)” value (H2030BrM3 cells [6])?
Answer: increase

Question: And the IC50 (HK2; FIG. 17, read-out: IC50, ability to decrease HK2 levels)?
Answer: 100 to 150 µM

Question: What about the HK2 levels (HK2; both lung cancer lines, within 3-6 h) of the same molecule?
Answer: decreased HK2 levels

Question: What about the “decrease of HK2 mRNA expression” value (HK2; not shown) of the same molecule?
Answer: > 80%

Question: What about the “concentration at which effects on complex I and II occur” value [7] of the same molecule?
Answer: ca. 400 μM

Question: What about the IC50 ([7]; pretreatment of H2030BrM3 cells, read-out: IC50, inhibition of complex I and II) of the same molecule?
Answer: ~400 µM
